Measured values reported in patent US20010027213A1, “Use of pyrethroid compounds to promote hair growth” (priority 1998, published 2001).

How the values were obtained:
Format in all cases: in vivo
[1] = system: mice (Sencar strain); assay: Ear thickness after TPA plus pyrethroid application, Example 2
Description: Another ear thickness experiment was performed. Ear thickness of mice (Sencar strain, female, 10 weeks of age, n =3/group) was measured with a thickness gage (Mitsutoyo Corp.). After measuring the thickness of both ears at the beginning of the experiment, 20 μL of 12-O-tetradecanoyl-phorbol 13-acetate (TPA) at a concentration of 10^−4 M in acetone was applied on both ears, followed by the application of 10 μL of ethanol on the left ears and 10 μL of the four compositions tested in Example 1 on the right ears (at a concentration of 1% of pyrethroid compound in ethanol solution). Again, ear thickness was monitored over three consecutive days following administration of the compositions.

[2] = system: C3H strain mice; assay: Hair growth on clipped back skin, repeat with minoxidil control, Example 5
Description: The ability of topical administration of pyrethroid compounds to promote hair growth was assessed in female C3H strain mice (10 weeks old; n=5/group). Hair on the back skin of the mice was clipped carefully with an electric clipper. 5 μL/cm^2 of the five compositions tested in the examples above were applied to the mice daily. The level of hair growth at the applied skin areas were evaluated by unaided visual inspection at the indicated time. Cyclosporin A was used as a control.
The experiment described in Example 4 was repeated with a commercially available hair growth-promoting compound (5% minoxidil) as a control.

[3] = system: mice (C3H strain); assay: Ear thickness (primary skin irritancy) after topical application, Example 1
Description: The following example was performed to determine if pyrethroid compounds cause skin irritation (as indicated by ear thickness in mice). Skin irritants may contribute to promoting hair growth.
Prior to the experiment, ear thickness of mice (C3H strain, female, 16 weeks of age, n=3/group) was measured with a thickness gage (Mitsutoyo Corp.). After measuring ear thickness of both ears, 10 μL of ethanol was applied on left ear and 10 μL of a pyrethroid solution (1% pyrethroid compound in ethanol) was applied to the right ear. Ear thickness was measured for three consecutive days after administration.

[4] = system: C3H strain mice; assay: Hair growth on clipped back skin, topical daily application, Example 4; settings: for Level of hair growth (unaided visual inspection): 1%, 5 μL/cm^2 daily, n=5/group
Description: The ability of topical administration of pyrethroid compounds to promote hair growth was assessed in female C3H strain mice (10 weeks old; n=5/group). Hair on the back skin of the mice was clipped carefully with an electric clipper. 5 μL/cm^2 of the five compositions tested in the examples above were applied to the mice daily. The level of hair growth at the applied skin areas were evaluated by unaided visual inspection at the indicated time.

[5] = system: mice of the C3H strain; assay: Skin irritancy on clipped back skin, visual score, Example 3; settings: three repeated topical administration, 1% in ethanol
Description: This experiment was conducted to test the skin irritancy of the compositions of this invention on hair-growing areas of test subjects, i.e., female mice (10 weeks old) of the C3H strain (n=5 group). After clipping the hair of the back skin of mice with an electric clipper, 5 μL/cm^2 of each four composition tested in Examples 1 and 2 (at a concentration of 1% in an ethanol solution) were applied. The application was administered once a day, for 3 consecutive days. Skin irritation was evaluated by unaided visual inspection at the end of the third day.

CC1(C)[C@H](C(=O)O[C@H](C#N)c2cccc(Oc3ccccc3)c2)[C@@H]1C=C(Br)Br [Deltamethrin, deltamethrin]
Right ear thickness ([1]; day 0 (before application), Sencar female mice, n=3): 26.0 ×0.01 mm
Right ear thickness ([1]; day 1, 20 μL TPA 10^−4 M in acetone then 10 μL of 1% in ethanol, Sencar mice): 27.3 ×0.01 mm
Right ear thickness ([1]; day 2, 20 μL TPA 10^−4 M in acetone then 10 μL of 1% in ethanol, Sencar mice): 29.0 ×0.01 mm
Right ear thickness ([1]; day 3, 20 μL TPA 10^−4 M in acetone then 10 μL of 1% in ethanol, Sencar mice): 28.0 ×0.01 mm
Level of hair growth (unaided visual inspection) ([2]; 0.01%, Week 1): 0
Level of hair growth (unaided visual inspection) ([2]; 0.01%, Week 2): 0
Level of hair growth (unaided visual inspection) ([2]; 0.01%, Week 3): 1
Level of hair growth (unaided visual inspection) ([2]; 0.01%, Week 4): 1
Level of hair growth (unaided visual inspection) ([2]; 0.01%, Week 5): 1
Level of hair growth (unaided visual inspection) ([2]; 0.01%, Week 6): 3
Level of hair growth (unaided visual inspection) ([2]; 0.1%, Week 1): 0
Level of hair growth (unaided visual inspection) ([2]; 0.1%, Week 2): 0
Level of hair growth (unaided visual inspection) ([2]; 0.1%, Week 3): 5
Level of hair growth (unaided visual inspection) ([2]; 0.1%, Week 4): 5
Level of hair growth (unaided visual inspection) ([2]; 0.1%, Week 5): 5
Level of hair growth (unaided visual inspection) ([2]; 0.1%, Week 6): 5
Level of hair growth (unaided visual inspection) ([2]; 1%, Week 1): 0
Level of hair growth (unaided visual inspection) ([2]; 1%, Week 2): 2
Level of hair growth (unaided visual inspection) ([2]; 1%, Week 3): 5
Level of hair growth (unaided visual inspection) ([2]; 1%, Week 4): 5
Level of hair growth (unaided visual inspection) ([2]; 1%, Week 5): 5
Level of hair growth (unaided visual inspection) ([2]; 1%, Week 6): 5
Promoting hair growth ([2]; concentrations of 0.1% and 1% in ethanol solutions): effective in promoting hair growth
Ear thickness compared to ethanol ([3]; 1% in ethanol, C3H mice): did not increase ear thickness
Right ear thickness ([3]; day 0 (before application), C3H female mice, n=3): 27.0 ×0.01 mm
Right ear thickness ([3]; day 1, 10 μL of 1% in ethanol on right ear, C3H mice): 27.3 ×0.01 mm
Right ear thickness ([3]; day 2, 10 μL of 1% in ethanol on right ear, C3H mice): 27.3 ×0.01 mm
Right ear thickness ([3]; day 3, 10 μL of 1% in ethanol on right ear, C3H mice): 28.0 ×0.01 mm
Promoting hair growth ([4]; 1% topical daily): effective in promoting hair growth
Level of hair growth (unaided visual inspection) ([4]; Day 7): 0
Level of hair growth (unaided visual inspection) ([4]; Day 14): 0
Level of hair growth (unaided visual inspection) ([4]; Day 19): 1
Level of hair growth (unaided visual inspection) ([4]; Day 29): 5
Level of hair growth (unaided visual inspection) ([4]; Day 36): 5
Skin irritation (redness) [5]: failed to cause skin irritation
